Key:
[1] = Stability of cannabinoid entourage and Vitamin E components of the powder concentrate by LCMSMS; format: physicochemical; details: powder stored at 21-25° C.
Procedure: At each time period, 0.05 g of powder was dissolved in 10 ml-15 of ethanol, diluted to fall within the analytical range, and injected into the LCMSMS for analysis.

[2] = Stability of cannabinoid compounds and Vitamin E components in Beverage 1 (AB White) by LCMSMS; format: physicochemical; details: for Stability of Plant-Derived Cannabinoid Compounds in AB White, 8° C.: AB White stored at 8° C.; for Stability of Plant-Derived Cannabinoid Compounds in AB White, 21-25° C.: AB White stored at 21-25° C.

## C=C(C)[C@@H]1CCC(C)=C[C@H]1c1c(O)cc(CCC)cc1O [CBDV, cannabidivarin]
[1]; 0 days
  Stability of Plant-Derived Cannabinoid Compounds in Powder Concentrate: 0.050 mg/g powder
[1]; 1 days
  Stability of Plant-Derived Cannabinoid Compounds in Powder Concentrate: 0.051 mg/g powder
[1]; 2 days
  Stability of Plant-Derived Cannabinoid Compounds in Powder Concentrate: 0.051 mg/g powder
[1]; 3 days
  Stability of Plant-Derived Cannabinoid Compounds in Powder Concentrate: 0.048 mg/g powder
[1]; 5 days
  Stability of Plant-Derived Cannabinoid Compounds in Powder Concentrate: 0.050 mg/g powder
[1]; 8 days
  Stability of Plant-Derived Cannabinoid Compounds in Powder Concentrate: 0.051 mg/g powder
[1]; 9 days
  Stability of Plant-Derived Cannabinoid Compounds in Powder Concentrate: 0.049 mg/g powder
[1]; 10 days
  Stability of Plant-Derived Cannabinoid Compounds in Powder Concentrate: 0.050 mg/g powder
[1]; 11 days
  Stability of Plant-Derived Cannabinoid Compounds in Powder Concentrate: 0.051 mg/g powder
[1]; 12 days
  Stability of Plant-Derived Cannabinoid Compounds in Powder Concentrate: 0.051 mg/g powder
[1]; 15 days
  Stability of Plant-Derived Cannabinoid Compounds in Powder Concentrate: 0.050 mg/g powder
[1]; 16 days
  Stability of Plant-Derived Cannabinoid Compounds in Powder Concentrate: 0.049 mg/g powder
[1]; 17 days
  Stability of Plant-Derived Cannabinoid Compounds in Powder Concentrate: 0.051 mg/g powder
[1]; 18 days
  Stability of Plant-Derived Cannabinoid Compounds in Powder Concentrate: 0.051 mg/g powder
[1]; 19 days
  Stability of Plant-Derived Cannabinoid Compounds in Powder Concentrate: 0.048 mg/g powder
[1]; 22 days
  Stability of Plant-Derived Cannabinoid Compounds in Powder Concentrate: 0.049 mg/g powder
[1]; 23 days
  Stability of Plant-Derived Cannabinoid Compounds in Powder Concentrate: 0.050 mg/g powder
[1]; 24 days
  Stability of Plant-Derived Cannabinoid Compounds in Powder Concentrate: 0.051 mg/g powder
[1]; 25 days
  Stability of Plant-Derived Cannabinoid Compounds in Powder Concentrate: 0.052 mg/g powder
[1]; 26 days
  Stability of Plant-Derived Cannabinoid Compounds in Powder Concentrate: 0.050 mg/g powder
[1]; 29 days
  Stability of Plant-Derived Cannabinoid Compounds in Powder Concentrate: 0.049 mg/g powder
[1]; 30 days
  Stability of Plant-Derived Cannabinoid Compounds in Powder Concentrate: 0.051 mg/g powder
[1]; 60 days
  Stability of Plant-Derived Cannabinoid Compounds in Powder Concentrate: 0.050 mg/g powder
[1]; 90 days
  Stability of Plant-Derived Cannabinoid Compounds in Powder Concentrate: 0.050 mg/g powder
[1]; 120 days
  Stability of Plant-Derived Cannabinoid Compounds in Powder Concentrate: 0.050 mg/g powder
[1]; 150 days
  Stability of Plant-Derived Cannabinoid Compounds in Powder Concentrate: 0.051 mg/g powder
[1]; 180 days
  Stability of Plant-Derived Cannabinoid Compounds in Powder Concentrate: 0.050 mg/g powder
[1]; 210 days
  Stability of Plant-Derived Cannabinoid Compounds in Powder Concentrate: 0.049 mg/g powder
[1]; 240 days
  Stability of Plant-Derived Cannabinoid Compounds in Powder Concentrate: 0.052 mg/g powder
[1]; 270 days
  Stability of Plant-Derived Cannabinoid Compounds in Powder Concentrate: 0.051 mg/g powder
[1]; 300 days
  Stability of Plant-Derived Cannabinoid Compounds in Powder Concentrate: 0.049 mg/g powder
[1]; 330 days
  Stability of Plant-Derived Cannabinoid Compounds in Powder Concentrate: 0.052 mg/g powder
[1]; 360 days
  Stability of Plant-Derived Cannabinoid Compounds in Powder Concentrate: 0.050 mg/g powder
[1]; 390 days
  Stability of Plant-Derived Cannabinoid Compounds in Powder Concentrate: 0.049 mg/g powder
[1]; 420 days
  Stability of Plant-Derived Cannabinoid Compounds in Powder Concentrate: 0.051 mg/g powder
[1]; 450 days
  Stability of Plant-Derived Cannabinoid Compounds in Powder Concentrate: 0.049 mg/g powder
[1]; 480 days
  Stability of Plant-Derived Cannabinoid Compounds in Powder Concentrate: 0.051 mg/g powder
[1]; 510 days
  Stability of Plant-Derived Cannabinoid Compounds in Powder Concentrate: 0.049 mg/g powder
[1]; 540 days
  Stability of Plant-Derived Cannabinoid Compounds in Powder Concentrate: 0.052 mg/g powder
[1]; 570 days
  Stability of Plant-Derived Cannabinoid Compounds in Powder Concentrate: 0.048 mg/g powder
[2]; 0 days
  Stability of Plant-Derived Cannabinoid Compounds in AB White, 8° C.: 0.150 µg/mL
  Stability of Plant-Derived Cannabinoid Compounds in AB White, 21-25° C.: 0.150 µg/mL
[2]; 1 days
  Stability of Plant-Derived Cannabinoid Compounds in AB White, 8° C.: 0.146 µg/mL
  Stability of Plant-Derived Cannabinoid Compounds in AB White, 21-25° C.: 0.149 µg/mL
[2]; 2 days
  Stability of Plant-Derived Cannabinoid Compounds in AB White, 8° C.: 0.147 µg/mL
  Stability of Plant-Derived Cannabinoid Compounds in AB White, 21-25° C.: 0.148 µg/mL
[2]; 3 days
  Stability of Plant-Derived Cannabinoid Compounds in AB White, 8° C.: 0.146 µg/mL
  Stability of Plant-Derived Cannabinoid Compounds in AB White, 21-25° C.: 0.149 µg/mL
[2]; 5 days
  Stability of Plant-Derived Cannabinoid Compounds in AB White, 8° C.: 0.147 µg/mL
  Stability of Plant-Derived Cannabinoid Compounds in AB White, 21-25° C.: 0.144 µg/mL
[2]; 8 days
  Stability of Plant-Derived Cannabinoid Compounds in AB White, 8° C.: 0.148 µg/mL
  Stability of Plant-Derived Cannabinoid Compounds in AB White, 21-25° C.: 0.145 µg/mL
[2]; 9 days
  Stability of Plant-Derived Cannabinoid Compounds in AB White, 8° C.: 0.146 µg/mL
  Stability of Plant-Derived Cannabinoid Compounds in AB White, 21-25° C.: 0.148 µg/mL
[2]; 10 days
  Stability of Plant-Derived Cannabinoid Compounds in AB White, 8° C.: 0.148 µg/mL
  Stability of Plant-Derived Cannabinoid Compounds in AB White, 21-25° C.: 0.147 µg/mL
[2]; 11 days
  Stability of Plant-Derived Cannabinoid Compounds in AB White, 8° C.: 0.150 µg/mL
  Stability of Plant-Derived Cannabinoid Compounds in AB White, 21-25° C.: 0.150 µg/mL
[2]; 12 days
  Stability of Plant-Derived Cannabinoid Compounds in AB White, 8° C.: 0.150 µg/mL
  Stability of Plant-Derived Cannabinoid Compounds in AB White, 21-25° C.: 0.152 µg/mL
[2]; 15 days
  Stability of Plant-Derived Cannabinoid Compounds in AB White, 8° C.: 0.150 µg/mL
  Stability of Plant-Derived Cannabinoid Compounds in AB White, 21-25° C.: 0.151 µg/mL
[2]; 16 days
  Stability of Plant-Derived Cannabinoid Compounds in AB White, 8° C.: 0.148 µg/mL
  Stability of Plant-Derived Cannabinoid Compounds in AB White, 21-25° C.: 0.145 µg/mL
[2]; 17 days
  Stability of Plant-Derived Cannabinoid Compounds in AB White, 8° C.: 0.146 µg/mL
  Stability of Plant-Derived Cannabinoid Compounds in AB White, 21-25° C.: 0.150 µg/mL
[2]; 18 days
  Stability of Plant-Derived Cannabinoid Compounds in AB White, 8° C.: 0.146 µg/mL
  Stability of Plant-Derived Cannabinoid Compounds in AB White, 21-25° C.: 0.151 µg/mL
[2]; 19 days
  Stability of Plant-Derived Cannabinoid Compounds in AB White, 8° C.: 0.149 µg/mL
  Stability of Plant-Derived Cannabinoid Compounds in AB White, 21-25° C.: 0.148 µg/mL
[2]; 22 days
  Stability of Plant-Derived Cannabinoid Compounds in AB White, 8° C.: 0.149 µg/mL
  Stability of Plant-Derived Cannabinoid Compounds in AB White, 21-25° C.: 0.148 µg/mL
[2]; 23 days
  Stability of Plant-Derived Cannabinoid Compounds in AB White, 8° C.: 0.149 µg/mL
  Stability of Plant-Derived Cannabinoid Compounds in AB White, 21-25° C.: 0.148 µg/mL
[2]; 24 days
  Stability of Plant-Derived Cannabinoid Compounds in AB White, 8° C.: 0.147 µg/mL
  Stability of Plant-Derived Cannabinoid Compounds in AB White, 21-25° C.: 0.145 µg/mL
[2]; 25 days
  Stability of Plant-Derived Cannabinoid Compounds in AB White, 8° C.: 0.149 µg/mL
  Stability of Plant-Derived Cannabinoid Compounds in AB White, 21-25° C.: 0.145 µg/mL
[2]; 26 days
  Stability of Plant-Derived Cannabinoid Compounds in AB White, 8° C.: 0.152 µg/mL
  Stability of Plant-Derived Cannabinoid Compounds in AB White, 21-25° C.: 0.149 µg/mL
[2]; 29 days
  Stability of Plant-Derived Cannabinoid Compounds in AB White, 8° C.: 0.151 µg/mL
  Stability of Plant-Derived Cannabinoid Compounds in AB White, 21-25° C.: 0.147 µg/mL
[2]; 30 days
  Stability of Plant-Derived Cannabinoid Compounds in AB White, 8° C.: 0.148 µg/mL
  Stability of Plant-Derived Cannabinoid Compounds in AB White, 21-25° C.: 0.151 µg/mL
[2]; 60 days
  Stability of Plant-Derived Cannabinoid Compounds in AB White, 8° C.: 0.143 µg/mL
  Stability of Plant-Derived Cannabinoid Compounds in AB White, 21-25° C.: 0.149 µg/mL
[2]; 90 days
  Stability of Plant-Derived Cannabinoid Compounds in AB White, 8° C.: 0.146 µg/mL
  Stability of Plant-Derived Cannabinoid Compounds in AB White, 21-25° C.: 0.143 µg/mL
[2]; 120 days
  Stability of Plant-Derived Cannabinoid Compounds in AB White, 8° C.: 0.144 µg/mL
  Stability of Plant-Derived Cannabinoid Compounds in AB White, 21-25° C.: 0.141 µg/mL
[2]; 150 days
  Stability of Plant-Derived Cannabinoid Compounds in AB White, 8° C.: 0.150 µg/mL
  Stability of Plant-Derived Cannabinoid Compounds in AB White, 21-25° C.: 0.146 µg/mL
[2]; 180 days
  Stability of Plant-Derived Cannabinoid Compounds in AB White, 8° C.: 0.150 µg/mL
  Stability of Plant-Derived Cannabinoid Compounds in AB White, 21-25° C.: 0.141 µg/mL
[2]; 210 days
  Stability of Plant-Derived Cannabinoid Compounds in AB White, 8° C.: 0.147 µg/mL
  Stability of Plant-Derived Cannabinoid Compounds in AB White, 21-25° C.: 0.142 µg/mL
[2]; 240 days
  Stability of Plant-Derived Cannabinoid Compounds in AB White, 8° C.: 0.145 µg/mL
  Stability of Plant-Derived Cannabinoid Compounds in AB White, 21-25° C.: 0.145 µg/mL
[2]; 270 days
  Stability of Plant-Derived Cannabinoid Compounds in AB White, 8° C.: 0.143 µg/mL
  Stability of Plant-Derived Cannabinoid Compounds in AB White, 21-25° C.: 0.148 µg/mL
[2]; 300 days
  Stability of Plant-Derived Cannabinoid Compounds in AB White, 8° C.: 0.143 µg/mL
  Stability of Plant-Derived Cannabinoid Compounds in AB White, 21-25° C.: 0.142 µg/mL
[2]; 330 days
  Stability of Plant-Derived Cannabinoid Compounds in AB White, 8° C.: 0.146 µg/mL
  Stability of Plant-Derived Cannabinoid Compounds in AB White, 21-25° C.: 0.144 µg/mL
[2]; 360 days
  Stability of Plant-Derived Cannabinoid Compounds in AB White, 8° C.: 0.145 µg/mL
  Stability of Plant-Derived Cannabinoid Compounds in AB White, 21-25° C.: 0.146 µg/mL
[2]; 390 days
  Stability of Plant-Derived Cannabinoid Compounds in AB White, 8° C.: 0.143 µg/mL
  Stability of Plant-Derived Cannabinoid Compounds in AB White, 21-25° C.: 0.146 µg/mL
[2]; 420 days
  Stability of Plant-Derived Cannabinoid Compounds in AB White, 8° C.: 0.144 µg/mL
  Stability of Plant-Derived Cannabinoid Compounds in AB White, 21-25° C.: 0.143 µg/mL
[2]; 450 days
  Stability of Plant-Derived Cannabinoid Compounds in AB White, 8° C.: 0.145 µg/mL
  Stability of Plant-Derived Cannabinoid Compounds in AB White, 21-25° C.: 0.144 µg/mL
[2]; 480 days
  Stability of Plant-Derived Cannabinoid Compounds in AB White, 8° C.: 0.143 µg/mL
  Stability of Plant-Derived Cannabinoid Compounds in AB White, 21-25° C.: 0.143 µg/mL
[2]; 510 days
  Stability of Plant-Derived Cannabinoid Compounds in AB White, 8° C.: 0.138 µg/mL
  Stability of Plant-Derived Cannabinoid Compounds in AB White, 21-25° C.: 0.139 µg/mL
[2]; 540 days
  Stability of Plant-Derived Cannabinoid Compounds in AB White, 8° C.: 0.139 µg/mL
  Stability of Plant-Derived Cannabinoid Compounds in AB White, 21-25° C.: 0.140 µg/mL
[2]; 570 days
  Stability of Plant-Derived Cannabinoid Compounds in AB White, 8° C.: 0.138 µg/mL
  Stability of Plant-Derived Cannabinoid Compounds in AB White, 21-25° C.: 0.138 µg/mL

— patent US20260130395A1, “Water Dispersible Botanical Compositions” (Aquila Black Limited, priority 2021, published 2026)
